Patent US20180185347A1, “TETRAHYDROCYCLOPENTA[B]INDOLE COMPOUNDS AND PHOSPHODIESTERASE INHIBITORS FOR THE TREATMENT OF THE SIGNS AND SYMPTOMS OF BHP” (Transition Therapeutics (Ireland 2) Limited, priority 2016, published 2018)
Where two headings read alike, the source gives them in different places.

How the values were obtained:
[1] = system: LnCAP cells; experiment: LnCAP gene expression; type: cell-based; conditions: Homo sapiens
[2] = system: orchidectomized rats; experiment: Testosterone induced prostate / seminal vesicle growth in delayed ORX rat model; type: in vivo
Source text: Orchidectomized (ORX) and sham-operated Wistar male rats were used (orchidectomized at 8 weeks of age and allowed to waste for 4 weeks). […] Rats were randomized and placed into treatment groups (n=6) based on body weight. Route of administration for all groups except testosterone enanthate (TE was given sub-cutaneously) was oral. At the end of 2 weeks of daily rats were euthanized, weighed & tissue harvested. Levator ani, prostates, and seminal vesicles were collected from each animal. Results are plotted as means±SE.

[3] = ORX + TE, 1 mg/kg/d (control group itself)

Row | SMILES | EC50 ([1]; read-out: LnCAP Gene Expression EC50 (nM) AR) [nM] | EC50 ([1]; read-out: LnCAP Gene Expression EC50 (nM) CLUSTERIN) [nM] | EC50 ([1]; read-out: LnCAP Gene Expression EC50 (nM) PSA) [nM] | prostate weights, Abs(Dif)-LSD vs ORX + TE control [2, 3] | seminal vesicle wet weights, Abs(Dif)-LSD vs ORX + TE control [2, 3] | prostate weight and seminal vesical weight ([2]; ORX rat, Testosterone 1 mg/k/d alone for 2 weeks)
1 | C[C@]1(O)CC[C@H]2[C@@H]3CCC4=CC(=O)CCC4=C3C=C[C@@]21C [R1881] | 0.035 | 0.37 | 0.034 | – | – | –
2 | CCCCCCC(=O)O[C@H]1CC[C@H]2[C@@H]3CCC4=CC(=O)CC[C@]4(C)[C@H]3CC[C@]12C [TE, Testosterone Enanthate, reference compound] | – | – | – | −0.15 | −0.52 | increase in prostate weight and seminal vesical weight
